What was measured:
HEP-G2 cells = assay: cells; conditions: for EC50 / Emax / EC (Emax): Homo sapiens; for EC50: HepG2, 3 h, read-out: HEP-G2 EC50, HEP-G2 cells, glucose utilisation, 3 hours incubation; for Emax: HepG2, read-out: HEP-G2 Emax (% of FCCP), HEP-G2 cells, maximal stimulation relative to FCCP; for EC (Emax): HepG2, read-out: HEP-G2 Emax (μM), HEP-G2 cells, concentration at which Emax is achieved (CEmax); for HEP-G2 Tox: human, 3 h
Experimental: Assay (I): Glucose utilisation in a human hepatocytes cell line (HEP-G2 cells)
The assay measures indirectly the activity of the respiratory chain in HEP-G2 cells by using D-(3-^3H(N))-glucose. The ^3H-proton will first be released during the metabolism of glucose where it will be incorporated into water. The water is thereafter separated from the D-(3-^3H(N))-glucose by evaporation. Finally, the radioactivity in the water is determined using a Topcounter.
HEP-G2 cells obtained from ATCC (Maryland, USA), are cultured in assay medium (MEM medium) with the following addition 1× non-essential amino acids (M7145, 2 mM glutamine, 100 units/ml penicillin and streptomycin, 0.0075% sodium bicarbonate, 1 mM sodium pyrovate and 0.5% BSA (Bovin Serum Albumin, Sigma Missouri, USA)) at 37° C. and 5% CO2. All media are obtained by Gibco (Life Technologies, Maryland, USA) where not otherwise mentioned.
At day zero the cells are harvested using trypsin-EDTA and washed in assay medium using centrifugation. […] The cells are then incubated at 37° C. and 5% CO2 overnight.
(§1) The next day the compounds to be tested are diluted in DMSO (Sigma, Missouri, USA) to 100 times final concentration. They are then diluted to a final concentration in assay medium containing 10 μCi/ml D-(3-^3H(N))-glucose (PerkinElmer Life Sciences Inc., Boston, USA). The medium is removed from the cells and 200 μl of the compound dilutions are added in duplicates. The cells are then incubated for another 3 hours at 37° C. and 5% CO2. Finally the cells are lysed by adding 50 μl 10% TCA (trichloroacetic acid). 300 μl of sterile water is then added to the 24-wells that surrounds the StripPlate wells. The plate is sealed with Top-seal-tape (Packard, PerkinElmer Life Sciences Inc., Boston, USA) and the plate is incubated in a heating cupboard at 50° C. to equilibrium the radioactive water formed in the respiratory chain into the water in the 24-well plate by evaporate. The plates incubate for 8 hours where the heating cupboard is turned off. The top seal is removed when the samples have reached room temperature. One ml scintillation liquid (Packard Microscient, PerkinElmer Life Sciences Inc., Boston, USA) is added to all the samples and the radioactivity is determined using a Topcounter (Packard, PerkinElmer Life Sciences Inc., Boston, USA). Non-specific activity is determined by evaporating 200 μl of the dilution medium containing the D-(3-^3H(N))-glucose into 300 μl sterile water, and total radioactivity is determined by counting 5 μl assay medium with 10 μCi/ml D-(3-^3H(N))-glucose.
The cpm (counts per minute) representing the non-specific radioactivity in the D-(3-^3H(N))-glucose is subtracted from all incubated values. Then mean basal value (samples without any compound added) is subtracted from the values of all stimulated samples (samples added different concentrations of the different test compounds). All these calculations are done using GraphPad Prism 3.0 (GraphPad software, Inc.). The maximal stimulation caused by the test compounds is calculated in percentage of maximal stimulation caused by either DNP or FCCP.
When calculating the concentration-response curve the maximal glucose utilisation stimulated by FCCP or DNP (subtracted non-specific and basal values) is converted to 100% and all the other values are expressed in percentage of this value. Using these percentage values and the compound concentration a concentration-response curve is calculated using sigmoidal dose-response (variable slope) equation (all the calculations are done by GraphPad Prism 3.0 (GraphPad software, Inc.));
Y=Bottom+(Top−Bottom)/(1+10^((LogEC50-X)*slope))
(§2) X is the logarithm of the molar concentration of the test compound.
Y is the degree of stimulation caused by the compound measured as a percentage of the maximal stimulation achieved by use of FCCP or DNP.
The results achieved with these concentrations are used to determine the slope in this area using the following equation: […]

FSK-4 cells = assay: Assay (IV): Glucose utilisation in FSK-4 cells; format: cell-based; conditions: FSK-4 cells; for EC50: glucose utilisation, 24 hours incubation, read-out: FSK4 EC50; for Emax: maximal efficacy relative to FCCP, read-out: FSK4 Emax (% of FCCP)
Experimental: Assay (IV): Glucose Utilisation in FSK-4 Cells
The assay measures indirectly the activity of the respiratory chain in FSK-4 cells by using D-(6-^3H(N))-glucose. The ^3H-proton will first be released in the TCA cyclus and transported to the respiratory chain where it will be incorporated into water. The water is thereafter separated from the D-(6-^3H(N))-glucose by evaporation. Finally, the radioactivity in the water is determined using a Topcounter.
FSK-4 cells obtained from ATCC (Maryland, USA), are cultured in growth medium (McCoy's medium with the following addition 100 units/ml penicillin and streptomycin and 10% FCS (fetal calf serum)) at 37° C. and 5% CO2. All media are obtained by Gibco (Life Technologies, Maryland, USA) where not otherwise mentioned.
At day zero the cells are harvested using trypsin-EDTA and washed in assay medium (MEM medium with the following addition 1× non-essential amino acids (M7145, 2 mM glutamin, 100 units/ml pencillin and streptomycin, 0.0075% sodium bicarbonate, 1 mM sodium pyrovate and 2% horse serum) using centrifugation. The cells are plated into single StripPlates wells (Corning B.V.Life Sciences, The Netherlands) that are placed into 24-well plates (Corning B.V.Life Sciences, The Netherlands) with a concentration of 1,5×10^4 cells/100 μl assay medium/well. The cells are then incubated at 37° C. and 5% CO2 overnight.
as §1, with “are diluted to different concentrations in DMSO” for “are diluted in DMSO”, “10 μCi/ml D-(6-^3H(N))-glucose (PerkinElmer Life” for “10 μCi/ml D-(3-^3H(N))-glucose (PerkinElmer Life”, “for another 24 hours at” for “for another 3 hours at”, “10% TCA (tri-chloroacetatic acid). 300” for “10% TCA (trichloroacetic acid). 300”, “containing the D-(6-^3H(N))-glucose into 300” for “containing the D-(3-^3H(N))-glucose into 300”, “10 μCi/ml D-(6-^3H(N))-glucose.” for “10 μCi/ml D-(3-^3H(N))-glucose.”
All calculations are done using GraphPad Prism 3.0 (GraphPad software, Inc.) From concentration-response curves the half maximal concentration (EC50) and maximal efficacy (Emax) are calculated using equation 1.
Y=Bottom+(Top−Bottom)/(1+10^((LogEc50-X)*slope))
as §2
Y is the degree of stimulation caused by the compound measured as percentage of the basal stimulation.
The calculated EC50 value is then used to determine the concentrations used in a study where the Hill slope is calculated.
From the double logarithmic plot of the increase in glucose utilisation and the compound concentration the Hill slope is calculated accordingly to equation 2.
It is presumed, that the maximal increase in the glucose utilisation (as measured in the FSK-4 glucose utilisation assay) is limited by the capacity of the metabolism.

Row | EC50 (HEP-G2 cells) | EC50 (FSK-4 cells) | Structure (SMILES) | Emax (HEP-G2 cells) | EC (Emax) (HEP-G2 cells) | HEP-G2 Tox (HEP-G2 cells) | Emax (FSK-4 cells)
1 | 700 nM | 1000 nM | Cc1c(Cl)cc(C(C)(C)C)c(O)c1C(=O)Nc1cc(C(F)(F)F)cc(C(F)(F)F)c1 [Example 47, N-(3,5-Bis-Trifluoromethyl-Phenyl)-3-Tert-Butyl-5-Chloro-2-Hydroxy-6-Methyl-Benzamide] | 75% | 10 µM | Tox 0.1 mM | 90%
2 | 3500 nM | 2800 nM | Cc1c(Cl)cc(C(C)(C)C)c(O)c1C(=O)Nc1cc(C(F)(F)F)ccc1F [Example 48, 3-Tert-Butyl-5-Chloro-N-(2-Fluoro-5-Trifluoromethyl-Phenyl)-2-Hydroxy-6-Methyl-Benzamide] | 95% | 10 µM | 0.1 mM | 85%
3 | 400 nM | 300 nM | Cc1c(Br)cc(C(C)(C)C)c(O)c1C(=O)Nc1ccc(C#N)cc1Cl [Example 51, 3-Bromo-5-Tert-Butyl-N-(2-Chloro-4-Cyano-Phenyl)-6-Hydroxy-2-Methyl-Benzamide] | 100% | 3 µM | – | 105%
4 | 2400 nM | 2500 nM | Cc1c(Br)cc(C(C)(C)C)c(O)c1C(=O)Nc1cc(C(F)(F)F)ccc1Cl [Example 52, 3-Bromo-5-Tert-Butyl-N-(2-Chloro-5-Trifluoromethyl-Phenyl)-6-Hydroxy-2-Methyl-Benzamide] | 95% | 10 µM | – | 75%
5 | 4150 nM | 15000 nM | Cc1c(Br)cc(C(C)(C)C)c(O)c1C(=O)Nc1ccc(Cl)cc1Cl [Example 53, 3-Bromo-5-Tert-Butyl-N-(2,4-Dichloro-Phenyl)-6-Hydroxy-2-Methyl-Benzamide] | 90% | 10 µM | – | 95%
6 | 520 nM | 300 nM | Cc1c(Br)cc(C(C)(C)C)c(O)c1C(=O)Nc1c(Cl)cc(Cl)cc1[N+](=O)[O-] [Example 54, 3-Bromo-5-Tert-Butyl-N-(2,4-Dichloro-6-Nitro-Phenyl)-6-Hydroxy-2-Methyl-Benzamide] | 90% | 3 µM | – | 80%
7 | 110 nM | 30 nM | Cc1ccc(C(C)(C)C)c(O)c1C(=O)Nc1ccc([N+](=O)[O-])cc1C(F)(F)F [Example 59, 3-Tert-Butyl-2-Hydroxy-6-Methyl-N-(4-Nitro-2-Trifluoromethyl-Phenyl)-Benzamide] | 110% | 10 µM | – | 100%
8 | 870 nM | 1100 nM | Cc1c(Br)cc(C(C)(C)C)c(O)c1C(=O)Nc1cc(C(F)(F)F)ccc1C(F)(F)F [Example 61, N-(2,5-Bis-Trifluoromethyl-Phenyl)-3-Bromo-5-Tert-Butyl-6-Hydroxy-2-Methyl-Benzamide] | 105% | 10 µM | – | 105%
9 | 2300 nM | 1200 nM | Cc1c(Br)cc(C(C)(C)C)c(O)c1C(=O)Nc1c(Cl)cc(Cl)cc1C(F)(F)F [Example 62, 3-Bromo-5-Tert-Butyl-N-(2,4-Dichloro-6-Trifluoromethyl-Phenyl)-6-Hydroxy-2-Methylbenzamide] | 115% | 30 µM | – | 85%
10 | 14000 nM | 19000 nM | Cc1c(Br)cc(C(C)(C)C)c(O)c1C(=O)Nc1ccc(C(C)C)cc1C(F)(F)F [Example 63, 3-Bromo-5-Tert-Butyl-6-Hydroxy-N-(4-Isopropyl-2-Trifluoromethyl-Phenyl)-2-Methyl-Benzamide] | 90% | 100 µM | – | 55%

Row | Structure (SMILES) | EC50 (HEP-G2 cells) | EC50 (FSK-4 cells) | Emax (HEP-G2 cells) | EC (Emax) (HEP-G2 cells) | HEP-G2 Tox (HEP-G2 cells) | Emax (FSK-4 cells)
11 | Cc1c(Cl)cc(C(C)(C)C)c(O)c1C(=O)Nc1ccc([N+](=O)[O-])c(C(F)(F)F)c1 [Example 49, 3-Tert-Butyl-5-Chloro-2-Hydroxy-6-Methyl-N-(4-Nitro-3-Trifluoromethyl-Phenyl)-Benzamide] | 950 nM | 300 nM | 105% | 3 µM | – | 95%
12 | Cc1c(Br)cc(C(C)(C)C)c(O)c1C(=O)Nc1c(Cl)cc([N+](=O)[O-])cc1Cl [Example 55, 3-Bromo-5-Tert-Butyl-N-(2,6-Dichloro-4-Nitro-Phenyl)-6-Hydroxy-2-Methyl-Benzamide] | 360 nM | 300 nM | 99% | 1 µM | – | 100%
13 | Cc1c(Br)cc(C(C)(C)C)c(O)c1C(=O)Nc1cc(C(F)(F)F)cc(C(F)(F)F)c1Br [Example 60, 3-Bromo-N-(2-Bromo-3,5-Bis-Trifluoromethyl-Phenyl)-5-Tert-Butyl-6-Hydroxy-2-Methylbenzamide] | 70 nM | 300 nM | 90% | 0.3 µM | – | 105%

From patent publication US20040138301A1, “Chemical uncouplers for the treatment of obesity” (priority 2002, published 2004)
